Here are results for 13 molecules from ChEMBL document CHEMBL1158657, “Improved antitumor activity by modification of nogalamycin” (1979).

What all share (format): functional
The subject of assay [1] is L1210. The assay can be described thus: Cytotoxicity against mouse L1210 cells. As to conditions: for IC50: Mus musculus.
Assay [2] relates to P388. The experiment in a line: Antitumor activity against mouse P388 cells xenografted in mouse assessed as increase in life span at 100 mg/kg/day, ip after 9 days. As to conditions: route intraperitoneal.
Assay [3] deals with P388. The experiment in a line: Antitumor activity against mouse P388 cells xenografted in mouse assessed as increase in life span at 12.5 mg/kg/day, ip after 9 days. Particulars: route intraperitoneal.
Assay [4] relates to P388. The experiment in a line: Antitumor activity against mouse P388 cells xenografted in mouse assessed as increase in life span at 8 mg/kg/day, ip after 9 days. As to conditions: route intraperitoneal.
The test system of assay [5] is P388. The assay can be described thus: Antitumor activity against mouse P388 cells xenografted in mouse assessed as increase in life span at 20 mg/kg/day, ip after 9 days. Particulars: route intraperitoneal.
Assay [6] deals with L1210. The assay can be described thus: Antitumor activity against mouse L1210 cells xenografted in mouse assessed as increase in life span at 20 mg/kg/day, ip after 9 days. Particulars: route intraperitoneal.
In assay [7] the test system is L1210. The experiment in a line: Inhibition of RNA synthesis in mouse L1210 cells at 10 nmole/ml.
Assay [8] concerns B16. The assay can be described thus: Antitumor activity against mouse B16 cells xenografted in mouse assessed as increase in life span at 2 to 5 mg/kg/day, ip after 9 days. As to conditions: route intraperitoneal.
The subject of assay [9] is P388. The assay can be described thus: Antitumor activity against mouse P388 cells xenografted in mouse assessed as increase in life span at 5 mg/kg/day, ip after 9 days. As to conditions: route intraperitoneal.
Assay [10] concerns L1210. The assay can be described thus: Antitumor activity against mouse L1210 cells xenografted in mouse assessed as increase in life span at 2.5 mg/kg/day, ip after 9 days. Particulars: route intraperitoneal.
Assay [11] relates to L1210. The experiment in a line: Inhibition of DNA synthesis in mouse L1210 cells. As to conditions: read-out: ID50 (the source's name).
The subject of assay [12] is L1210. The experiment in a line: Inhibition of RNA synthesis in mouse L1210 cells. Particulars: read-out: ID50 (the source's name).
In assay [13] the test system is P388. The assay can be described thus: Antitumor activity against mouse P388 cells xenografted in mouse assessed as increase in life span at 25 mg/kg/day, ip after 9 days. As to conditions: route intraperitoneal.
The test system of assay [14] is P388. The assay can be described thus: Antitumor activity against mouse P388 cells xenografted in mouse assessed as increase in life span at 6.3 mg/kg/day, ip after 9 days. As to conditions: route intraperitoneal.
Assay [15] relates to P388. The assay can be described thus: Antitumor activity against mouse P388 cells xenografted in mouse assessed as increase in life span at 50 mg/kg/day, ip after 9 days. Particulars: route intraperitoneal.
Assay [16] concerns B16. The assay can be described thus: Antitumor activity against mouse B16 cells xenografted in mouse assessed as increase in life span at 10 mg/kg/day, ip after 9 days. Particulars: route intraperitoneal.
Setting [17] is: L1210, read-out: ID50 (the source's name).

In the case of `CN(C)[C@H]1[C@H](O)[C@@H]2Oc3c(cc(O)c4c3C(=O)c3cc5c(c(O)c3C4=O)CC[C@](C)(O)C5)[C@@](C)(O2)[C@@H]1O`, the ID95 in the assay with L1210 [1] stood at 1760 nM. For the same molecule, the IC50 with L1210 [1] (setting [17]) was 940 nM. Also, the Activity in the assay on P388 [2] amounted to 21%.

With `CCCO[C@H]1C[C@@](C)(O)[C@H](C(=O)OC)c2cc3c(c(O)c21)C(=O)c1c(O)cc2c(c1C3=O)O[C@@H]1O[C@@]2(C)[C@H](O)[C@@H](N(C)C)[C@@H]1O`, in the assay with L1210 [1] (L1210, read-out: ID50), the IC50 was determined as 0.3 µg/mL.

Regarding `CCO[C@H]1C[C@@](C)(O)[C@H](C(=O)OC)c2cc3c(c(O)c21)C(=O)c1c(O)cc2c(c1C3=O)O[C@@H]1O[C@@]2(C)[C@H](O)[C@@H](N(C)C)[C@@H]1O`, the IC50 in the assay with L1210 [1] (L1210, read-out: ID50) came out at 0.15 µg/mL. For the same molecule, in the assay with P388 [3], the Activity is listed as 70%.

For the molecule `COC(=O)[C@@H]1c2cc3c(c(O)c2[C@@H](SC)C[C@]1(C)O)C(=O)c1c(O)cc2c(c1C3=O)O[C@@H]1O[C@@]2(C)[C@H](O)[C@@H](N(C)C)[C@@H]1O`, the Activity with P388 [4] came out at 37%.

The molecule `CO[C@H]1[C@H](O[C@H]2C[C@](C)(O)[C@H](C(=O)O)c3cc4c(c(O)c32)C(=O)c2c(O)cc3c(c2C4=O)O[C@@H]2O[C@@]3(C)[C@H](O)[C@@H](N(C)C)[C@@H]2O)O[C@@H](C)[C@H](OC)[C@@]1(C)OC` [NOGALAMYCINIC ACID] came in with an ID95 in the assay on L1210 [1] of 1.94 µg/mL. Also, the IC50 with L1210 [1] (L1210, read-out: ID50) amounted to 1 µg/mL. In addition, the Activity in the assay with P388 [5] is given as 56%; in the assay on L1210 [6], 18%. Besides, in the assay on L1210 [7], the “inhibition (INH)” value was 86.7%.

Regarding `CO[C@H]1[C@H](O[C@H]2C[C@](C)(O)Cc3cc4c(c(O)c32)C(=O)c2c(O)cc3c(c2C4=O)O[C@@H]2O[C@@]3(C)[C@H](O)[C@@H](N(C)C)[C@@H]2O)O[C@@H](C)[C@H](OC)[C@@]1(C)OC` [DISNOGAMYCIN], the Activity with B16 [8] worked out at 61%; with P388 [9], 93%; in the assay on L1210 [10], 27%. Also, the ID95 in the assay with L1210 [1] worked out at 0.27 µg/mL. In addition, the IC50 is 0.18 µg/mL with L1210 [1] (L1210, read-out: ID50); 3000 nM in the assay on L1210 [11]; 500 nM in the assay with L1210 [12].

For `CCN[C@H]1C[C@](C)(O)[C@H](C(=O)OC)c2cc3c(c(O)c21)C(=O)c1c(O)cc2c(c1C3=O)O[C@@H]1O[C@@]2(C)[C@H](O)[C@@H](N(C)C)[C@@H]1O`, the Activity in the assay with P388 [13] is on record as 55%.

Turning to `CCCO[C@H]1C[C@@](C)(O)Cc2cc3c(c(O)c21)C(=O)c1c(O)cc2c(c1C3=O)O[C@@H]1O[C@@]2(C)[C@H](O)[C@@H](N(C)C)[C@@H]1O`, the IC50 in the assay with L1210 [1] (L1210, read-out: ID50) stood at 0.1 µg/mL. For the same molecule, in the assay with P388 [14], the Activity is 34%.

For `COC(=O)[C@@H]1c2cc3c(c(O)c2[C@@H](N=[N+]=[N-])C[C@]1(C)O)C(=O)c1c(O)cc2c(c1C3=O)O[C@@H]1O[C@@]2(C)[C@H](O)[C@@H](N(C)C)[C@@H]1O`, the Activity in the assay on P388 [9] is 33%.

As for `COC(=O)[C@@H]1c2cc3c(c(O)c2CC[C@]1(C)O)C(=O)c1c(O)cc2c(c1C3=O)O[C@@H]1O[C@@]2(C)[C@H](O)[C@@H](N(C)C)[C@@H]1O`, in the assay with P388 [15], the Activity is on record as 27%. This molecule also had an ID95 in the assay with L1210 [1] of 1510 nM. Moreover, the IC50 in the assay with L1210 [1] (setting [17]) was 580 nM.

In the case of `CN[C@H]1C[C@](C)(O)[C@H](C(=O)OC)c2cc3c(c(O)c21)C(=O)c1c(O)cc2c(c1C3=O)O[C@@H]1O[C@@]2(C)[C@H](O)[C@@H](N(C)C)[C@@H]1O`, the Activity in the assay on P388 [13] worked out at 58%.

With `COC(=O)[C@@H]1c2cc3c(c(O)c2[C@@H](OC)C[C@@]1(C)O)C(=O)c1c(O)cc2c(c1C3=O)O[C@@H]1O[C@@]2(C)[C@H](O)[C@@H](N(C)C)[C@@H]1O`, the Activity amounted to 35% in the assay with B16 [16] and 98% in the assay on P388 [13]. The IC50 came out at 0.13 µg/mL with L1210 [1] (L1210, read-out: ID50); 7000 nM with L1210 [11]; 7800 nM in the assay on L1210 [12].

`COC(=O)[C@@H]1c2cc3c(c(O)c2[C@@H](N(C)C)C[C@]1(C)O)C(=O)c1c(O)cc2c(c1C3=O)O[C@@H]1O[C@@]2(C)[C@H](O)[C@@H](N(C)C)[C@@H]1O`: the Activity with P388 [15] was found to be 54%.
